The values that follow come from patent publication US6331555A, “Treatment of platelet derived growth factor related disorders such as cancers” (priority 1999, dated 2001).

Like-named read-outs stand apart in the source and are kept apart here.

Common to all, as to assay type: cell-based
One test concerns PDGFR. The test can be described thus: Receptor tyrosine kinase inhibition, PDGFR. To be noted: for IC50: W = done in Western assay, read-out: PDGFR IC50 (W). Put shortly:
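Serum-starved cells treated with test compound for 2 hr at 37° C, then receptor phosphotyrosine measured by ELISA with anti-phosphotyrosine antibody and goat anti-rabbit IgG. Western blots used 7 min ligand stimulation at room temperature, vanadate-containing lysis and anti-phosphotyrosine immunodetection with ECL.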

The target of the next test is T1, FLK-1 (Mus musculus, UniProt P35918).
T1 construct: expressed in transfected cells; host or cells: NIH3T3 mouse fibroblasts, retroviral vector
T1 sequence (P35918 20-1345): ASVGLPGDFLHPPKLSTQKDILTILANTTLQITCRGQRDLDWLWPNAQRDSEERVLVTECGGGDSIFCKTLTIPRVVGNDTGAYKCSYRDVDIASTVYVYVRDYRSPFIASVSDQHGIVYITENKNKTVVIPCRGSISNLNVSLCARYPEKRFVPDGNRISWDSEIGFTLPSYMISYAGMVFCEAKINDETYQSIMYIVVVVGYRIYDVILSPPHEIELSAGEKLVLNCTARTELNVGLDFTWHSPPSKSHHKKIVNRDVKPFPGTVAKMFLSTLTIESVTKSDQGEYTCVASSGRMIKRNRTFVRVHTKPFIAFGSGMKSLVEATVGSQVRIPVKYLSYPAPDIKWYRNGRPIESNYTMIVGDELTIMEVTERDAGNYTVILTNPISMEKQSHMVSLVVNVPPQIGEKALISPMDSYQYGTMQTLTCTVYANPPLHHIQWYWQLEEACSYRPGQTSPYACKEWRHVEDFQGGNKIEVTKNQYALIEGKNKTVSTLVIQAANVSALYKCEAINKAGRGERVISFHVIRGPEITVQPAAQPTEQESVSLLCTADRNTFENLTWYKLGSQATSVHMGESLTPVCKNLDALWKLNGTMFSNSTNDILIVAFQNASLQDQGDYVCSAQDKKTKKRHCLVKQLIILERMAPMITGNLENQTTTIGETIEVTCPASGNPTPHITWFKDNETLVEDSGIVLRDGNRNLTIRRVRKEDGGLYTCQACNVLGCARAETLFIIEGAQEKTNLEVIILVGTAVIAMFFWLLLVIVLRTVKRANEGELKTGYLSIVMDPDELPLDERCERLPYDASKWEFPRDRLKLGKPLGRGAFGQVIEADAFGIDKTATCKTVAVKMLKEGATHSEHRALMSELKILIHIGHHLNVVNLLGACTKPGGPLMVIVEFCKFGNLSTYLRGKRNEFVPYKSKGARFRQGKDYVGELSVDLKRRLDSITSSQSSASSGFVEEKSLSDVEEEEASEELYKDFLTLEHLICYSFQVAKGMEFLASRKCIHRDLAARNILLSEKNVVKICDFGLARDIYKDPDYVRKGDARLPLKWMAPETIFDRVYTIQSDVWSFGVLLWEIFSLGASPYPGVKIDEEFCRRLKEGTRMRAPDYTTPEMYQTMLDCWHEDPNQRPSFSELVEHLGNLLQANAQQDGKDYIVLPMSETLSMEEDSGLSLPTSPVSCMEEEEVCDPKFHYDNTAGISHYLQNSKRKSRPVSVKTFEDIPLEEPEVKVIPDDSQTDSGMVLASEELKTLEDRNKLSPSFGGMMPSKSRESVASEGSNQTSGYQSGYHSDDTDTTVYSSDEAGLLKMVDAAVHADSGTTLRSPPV
The test can be described thus: Receptor tyrosine kinase inhibition, FLK-1. Put shortly: (§1)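 For ELISA, cells kept overnight in 0.5% serum were switched to serum-free medium, given compound for 2 h at 37 °C, then ligand-stimulated for 5–10 min. Lysates were captured on receptor-specific antibody plates and probed with anti-phosphotyrosine antibody. For western blots, cells in 1% FBS received ligand for 7 min at room temperature before anti-phosphotyrosine immunoblotting.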

The target in another test is T2, EGFR (Homo sapiens, UniProt P00533).
T2 construct: expressed in transfected cells; host or cells: NIH3T3 mouse fibroblasts, retroviral vector
T2 sequence (P00533 25-1210): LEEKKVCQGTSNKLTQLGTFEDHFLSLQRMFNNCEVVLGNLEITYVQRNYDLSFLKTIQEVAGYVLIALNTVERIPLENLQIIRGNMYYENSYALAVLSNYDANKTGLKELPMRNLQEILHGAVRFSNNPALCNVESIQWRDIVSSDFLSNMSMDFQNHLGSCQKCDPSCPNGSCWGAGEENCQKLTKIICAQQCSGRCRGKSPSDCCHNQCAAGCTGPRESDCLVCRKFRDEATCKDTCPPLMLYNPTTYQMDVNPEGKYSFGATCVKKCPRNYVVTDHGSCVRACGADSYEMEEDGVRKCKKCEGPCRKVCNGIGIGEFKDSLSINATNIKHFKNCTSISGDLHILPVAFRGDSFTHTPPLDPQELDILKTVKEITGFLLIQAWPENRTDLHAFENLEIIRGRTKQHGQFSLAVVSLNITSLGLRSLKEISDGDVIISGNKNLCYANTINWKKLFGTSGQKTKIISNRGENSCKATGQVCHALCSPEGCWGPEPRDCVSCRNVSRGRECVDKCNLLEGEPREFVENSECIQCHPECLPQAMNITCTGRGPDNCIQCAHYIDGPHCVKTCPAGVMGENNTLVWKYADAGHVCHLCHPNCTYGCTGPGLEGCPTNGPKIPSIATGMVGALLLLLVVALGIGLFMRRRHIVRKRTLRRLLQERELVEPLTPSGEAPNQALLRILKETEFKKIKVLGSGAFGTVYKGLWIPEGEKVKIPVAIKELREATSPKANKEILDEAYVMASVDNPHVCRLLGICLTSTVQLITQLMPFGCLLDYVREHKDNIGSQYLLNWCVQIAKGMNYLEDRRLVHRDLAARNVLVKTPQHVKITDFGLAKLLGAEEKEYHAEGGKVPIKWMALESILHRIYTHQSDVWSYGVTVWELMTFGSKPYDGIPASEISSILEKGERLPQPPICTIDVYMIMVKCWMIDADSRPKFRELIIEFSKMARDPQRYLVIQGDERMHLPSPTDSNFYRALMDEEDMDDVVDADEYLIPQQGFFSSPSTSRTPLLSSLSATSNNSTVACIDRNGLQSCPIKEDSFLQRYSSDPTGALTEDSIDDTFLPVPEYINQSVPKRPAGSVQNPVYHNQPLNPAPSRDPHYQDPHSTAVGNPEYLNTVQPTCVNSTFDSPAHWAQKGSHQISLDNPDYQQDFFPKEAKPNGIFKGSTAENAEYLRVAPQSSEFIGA
Nature of the test: Receptor tyrosine kinase inhibition, EGFR. Put shortly: as §1

[1] abbreviates: W = done in Western assay, read-out: FLK-1 IC50 (W).

For the molecule `N#CC(=Cc1c[nH]c2ccccc12)C(N)=S` [Compound D11], the values for the IC50 in the test on PDGFR and on FLK-1 (read-out: FLK-1 IC50) were 8 µM and > 50 µM, respectively.
With `COc1cc2ncc(-c3ccccc3)nc2cc1OC` [Compound G14], in the test with PDGFR, the “PDGF-R phosphorylation” value is “inhibit PDGF-R phosphorylation”. Also, the IC50 in the test on PDGFR is 0.8 µM; at FLK-1 (setting [1]), > 30 µM. In addition, the “EGF receptor phosphorylation” value on EGFR is listed as “do not effect EGF or HER2 phosphorylation”.
As for `c1ccc(-c2cnc3cc4ccccc4cc3n2)cc1` [Compound G22], the IC50 at EGFR (read-out: EGFR ID50) is > 100 µM.
With `Cc1oncc1C(=O)Nc1ccc(C(F)(F)F)cc1` [Compound A10, 5-methylisoxazole-4 carboxylic acid-(4-trifluromethyl)-anilide], on EGFR, the “EGF receptor phosphorylation” value was “little if any effect on EGF-receptor or HER2 phosphorylation”.
For the molecule `Cc1cc2ncc(-c3ccccc3)nc2cc1C` [Compound G13], the “PDGF-R phosphorylation” value with PDGFR is “inhibit PDGF-R phosphorylation”. On EGFR, the “EGF receptor phosphorylation” value is recorded as “do not effect EGF or HER2 phosphorylation”. Besides, the IC50 on FLK-1 (setting [1]) was > 10 µM.
As for `Cc1cc2nc(-c3ccccc3)c(=O)[nH]c2cc1C` [Compound G18], the IC50 in the test on PDGFR worked out at 10 µM; on EGFR (W = done in Western assay, read-out: EGFR ID50 (W)), 500 µM.
Turning to `O=c1c2ccccc2nc(C=Cc2ccc(O)c(O)c2)n1CCO` [Compound F10], the values for the IC50 with PDGFR and at FLK-1 (read-out: FLK-1 IC50) were 5 µM and > 50 µM, respectively.
For `CN(C)CCCn1cc(C=C(C#N)c2[nH]nc(N)c2C#N)c2ccccc21` [Compound D15], the IC50 with PDGFR was 19 µM; on FLK-1 (read-out: FLK-1 IC50), > 50 µM.
In the case of `N#CC(=Cc1c[nH]c2ccccc12)c1[nH]nc(N)c1C#N` [Compound D14], in the test on PDGFR, the “PDGF-R phosphorylation” value was “inhibit PDGF-R phosphorylation”. In addition, the “EGF receptor phosphorylation” value at EGFR was “do not effect EGF or HER2 phosphorylation”. Moreover, the IC50 was > 100 µM at EGFR (read-out: EGFR ID50) and > 50 µM on FLK-1 (read-out: FLK-1 IC50).
